# Results reported in patent publication US5866577A, “Aromatic amidine derivatives and salts thereof” (priority 1991, dated 1999).
# Where a name gives a salt, the structure may show the parent alone.
# Key:
# [1] = test system: male Slc:SD rats; test: Toxicity Test by Repeated Oral Administration to Rat; assay type: in vivo
# Description: Toxicity Test by Repeated Oral Administration to Rat
# Each of the compounds of the present invention was dissolved in distilled water and administered orally to each of five five-week old male Slc:SD rats, at a dose of 800 mg/kg body weight. The oral administration was carried out once a day and repeated for 10 days to observe mortality.
# [2] = test system: male Slc:SD rats; test: Toxicity Test by Single Oral Administration to Rat; conditions: in vivo
# [3] = Measurement of Solubility in Water
# Description: A fixed amount of water was added to a varying amounts of each sample, and the mixture was agitated on a shaker at 25° C. for 10 minutes.
# [4] = test system: thrombus formed on copper wire in arteriovenous shunt; test: Antithrombotic Effect by Oral Administration to Rat in an Arteriovenous Shunt Model; assay type: in vivo, male STD:Wistar rat; conditions: for Thrombus formed: mean ± S.E. (n = 6), p < 0.05 per control
# Description: Antithrombotic Effect by Oral Administration to Rat in an Arteriovenous Shunt Model
# Amtithrombotic effect by oral administration of the compound of the present invention was measured by slightly modifying the procedure disclosed in Thrombosis Research, vol. 54, pp. 399-410, 1989.
# A predetermined amount of a compound to be tested was dissolved in purified water and administered orally to a male STD:Wistar rat, and the rat was anesthetized 15 minutes after the administration. An artery clip was attached to proximally the carotid artery of the thus anesthetized rat to stop blood circulation and to insert and fix an end of a shunt filled with physiological saline, while the other end of the shunt was inserted into the jugular vein and fixed. In this instance, the shunt was prepared by indwelling a copper wire (0.17 mm in diameter and 20 cm in length) in a polyethylene tube (Hibiki No. 5; 5/3 mm in outer diameter and 21 cm in length) and connecting each end of the tube with a polyethylene tube (Hibiki No. 3; 1 mm in outer diameter and 3 cm in length) using a 3 mm silicone tube. After 30 minutes of the administration, the artery clip was removed to flow blood into the shunt. After 7 minutes of the blood recirculation, the copper wire was pulled out together with formed thrombus and washed with 10 ml of physiological saline. Thereafter, the amount of thrombus formed on the copper wire was determined as protein in accordance with the procedure disclosed in Journal of Biological Chemistry, vol. 193, pp. 265-275, 1951. As a control, water was administered instead of the compound to be tested to calculate thrombosis inhibition rate after administration of the compound.
# [5] = test system: human blood plasma (clotting time); test: Measurement of Anticoagulant Activity (plasma clotting time, CT2); assay type: biochemical; conditions: concentration which doubles the control clotting time, 37° C.
# Description: Measurement of Anticoagulant Activity A blood plasma sample was prepared from human blood using a centrifuge. […] Thereafter, clotting time was measured using CLOTEC (Sanko Junyaku Co., Ltd.). A clotting time measured without adding a compound to be tested was used as a control, and a concentration of the test compound which doubles the control clotting time was calculated (hereinafter referred to as "CT2") as an index of the anticoagulant activity.
# [6] = prior-art statement; cited from earlier work
# [7] = test system: FXa and thrombin; conditions: prior-art statement; cited from earlier work
# [8] = test system: anticoagulant effect; conditions: oral; prior-art statement; cited from earlier work
# [9] = target: human FXa (Homo sapiens, UniProt P00742); test: Measurement of Activated Blood Coagulation Factor X (FXa) Inhibition Activity; assay type: biochemical; conditions: substrate S-2222, 37° C., 15 minutes
# Sequence of human FXa (P00742 235-488 limits assumed): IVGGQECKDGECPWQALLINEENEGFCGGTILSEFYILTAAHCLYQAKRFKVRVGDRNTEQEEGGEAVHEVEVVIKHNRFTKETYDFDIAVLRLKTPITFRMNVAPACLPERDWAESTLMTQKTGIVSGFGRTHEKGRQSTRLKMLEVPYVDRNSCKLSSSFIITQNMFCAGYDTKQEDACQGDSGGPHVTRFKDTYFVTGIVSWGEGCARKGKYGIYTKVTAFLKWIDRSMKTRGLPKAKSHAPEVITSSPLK
# Sequence of human FXa (P00742 41-179 limits assumed): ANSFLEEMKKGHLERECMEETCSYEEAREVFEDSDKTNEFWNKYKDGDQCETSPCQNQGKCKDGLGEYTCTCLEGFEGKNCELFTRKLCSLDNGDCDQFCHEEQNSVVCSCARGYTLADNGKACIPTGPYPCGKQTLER
# Description: Measurement of Activated Blood Coagulation Factor X (FXa) Inhibition Activity
# A 180 μl portion of physiological saline solution containing a compound to be tested was mixed with 200 μl of Tris-HCl buffer (pH 8.4) and 100 μl of 1 mM S-2222 (KabiVitrum AB) aqueous solution, and the mixture was incubated at 37° C. 20 μl of Tris-HCl buffered saline (pH 7.45) containing 0.6 unit/ml of human FXa was added to the mixture. After 15 minutes of incubation at the same temperature, the reaction was stopped by adding 100 μl of 60% acetic acid, and absorbance of the reaction mixture was measured. A reaction mixture with no addition of a test compound was used as a blank, and another reaction mixture in which 60% acetic acid was added prior to the addition of FXa was used as a control.
# [10] = Solubility observed in preparation (solubility to any solvent); assay type: physicochemical; conditions: hydrochloride monohydrate
# [11] = target: T1, thrombin (Bos taurus, UniProt P00735); test: Measurement of Thrombin Inhibition Activity; assay type: biochemical
# T1 construct: thrombin (for topical application use, Sankyo Co., Ltd.); purchased Sankyo Co., Ltd
# Description: Measurement of Thrombin Inhibition Activity
# A 100 μl portion of Tris-HCl buffered saline (pH 7.45) (TBS) containing 6 mg/ml of fibrinogen (Type 1, Daiichi Pure Chemicals Co., Ltd.) was mixed with 100 μl of physiological saline solution. At 37° C., 100 μl of Tris-HCl buffered saline (pH 7.45) (TBS) containing varying amounts of thrombin (for topical application use, Sankyo Co., Ltd.) was added to the mixture prepared above to measure clotting time using CLOTEC (Sanko Junyaku Co., Ltd.) and to prepare a calibration curve.
# [12] = test system: activated partial thromboplastin time (APTT); test: Measurement of Anticoagulant Activity in Oral Administration (APTT); assay type: in vivo, male STD:Wistar rat; conditions: rat, 100 mg/kg
# Description: Measurement of Anticoagulant Activity in Oral Administration
# An aqueous solution of each compound to be tested was administered orally to each male STD:Wistar rat individual under an anesthetic, at a dose of 10 ml/kg body weight. Blood samples were collected periodically and blood plasma preparations were obtained from the samples to measure activated partial thromboplastin time (APTT). In the same manner, APTT was measured by administering pure water and used as a control. A test/control APTT ratio was calculated and used as an index of the anticoagulant activity.
# [13] = oral 800 mg/kg once a day for 10 days, 5 rats administered
smiles,measurement,setting,value
"CC(=N)N1CC[C@H](Oc2ccc(C(Cc3ccc4ccc(C(=N)N)cc4c3)C(=O)O)cc2)C1.Cl.O.O.O.O.O (single isomer, unassigned; (+)) [Inventive Example 45]",Mortal Case,[1]; [13],0
same,mortality,[2],No mortal case
same,solubility at 10 min,[3],≥ 200 mg/mL
same,Thrombosis inhibition,[4]; 10 mg/kg,34%
same,Thrombus formed,[4]; 10 mg/kg,585 ± 85 µg
same,Thrombosis inhibition,[4]; 30 mg/kg,60%
same,Thrombus formed,[4]; 30 mg/kg,356 ± 51 µg
same,Anti-Coagulation CT2,[5],0.49 µM
"N=C(N)c1ccc2oc(CCc3cc4cc(C(=N)N)ccc4o3)cc2c1 [DABE, 1,2-bis(5-amidino-2-benzofuranyl)ethane, reference compound]",water solubility (in words),[6],very low water solubility
same,separation of FXa and thrombin inhibitory activities (in words),[7],cannot be separated sufficiently from each other
same,anticoagulant effect when administered orally (in words),[8],does not show its anticoagulant effect when administered orally
same,solubility at 10 min,[3],≤ 5 mg/mL
same,IC50,[9],95 nM
same,Anti-Coagulation CT2,[5],1.6 µM
"Cl.N=C(N)c1ccc2ccc(CC(C(=O)O)c3ccc(OCC4CCNCC4)cc3)cc2c1.O (centres unmarked) [Inventive Example 18, 3-(7-amidino-2-naphthyl)-2-[4-[(4-piperidinyl)methoxy]-phenyl]propionic Acid Hydrochloride Monohydrate]",solubility to any solvent (in words),[10],very low
"Cl.Cl.N=C(N)c1ccc2oc(CC(C(=O)O)c3ccc(O[C@H]4CCNC4)cc3)cc2c1 (stereo partly drawn) [Inventive Example 19, 3-(5-amidino-2-benzofuranyl)-2-[4-[((3S)-3-pyrrolidinyl)-oxy]phenyl]propionic Acid Dihydrochloride]",Mortal Case,[1]; [13],0
same,solubility at 10 min,[3],≥ 450 mg/mL
"Cl.Cl.N=C(N)c1ccc2sc(CC(C(=O)O)c3ccc(O[C@H]4CCNC4)cc3)cc2c1 (stereo partly drawn) [Inventive Example 25, 3-(5-amidinobenzo[b]thien-2-yl)-2-[4-[((3S)-3-pyrrolidin-yl)oxy]phenyl]propionic Acid Dihydrochloride]",Mortal Case,[1]; [13],0
same,solubility at 10 min,[3],≥ 500 mg/mL
"Cl.Cl.N=C(N)c1ccc2cc(CC(C(=O)O)c3ccc(O[C@H]4CCNC4)cc3)[nH]c2c1 (stereo partly drawn) [Inventive Example 69, 3-(6-amidino-2-indolyl)-2-[4-[((3S)-3-pyrrolidinyl)oxy]-phenyl]propionic Acid Dihydrochloride]",Mortal Case,"[1]; rat, in vivo, po, 800 mg/kg",0
"CC(=N)N1CC[C@H](Oc2ccc(C(Cc3cc4cc(C(=N)N)ccc4s3)C(=O)O)cc2)C1 (stereo partly drawn) [Inventive Example 88, 2-[4-[((3S)-1-acetimidoyl-3-pyrrolidinyl)oxy]phenyl]-3-(5-amidinobenzo[b]thien-^2-yl)propionic Acid Dihydrochloride]",Mortal Case,[1]; [13],0
"CC(=N)N1CCC(Oc2ccc(C(Cc3ccc4ccc(C(=N)N)cc4c3)C(=O)O)cc2)CC1.Cl.Cl (centres unmarked) [Inventive Example 108, 2-[4-[(1-acetimidoyl-4-piperidinyl)oxy]phenyl]-3-(7-amidino-2-naphthyl)propionic Acid Dihydrochloride]",IC50,[11],250000 nM
same,solubility at 10 min,[3],≥ 350 mg/mL
same,IC50,[9],18 nM
same,Anti-Coagulation CT2,[5],0.3 µM
same,Test/Control APTT Ratio,[12]; 0.5 hr,2.12
same,Test/Control APTT Ratio,[12]; 1 hr,2.18
same,Test/Control APTT Ratio,[12]; 2 hr,1.69
same,Test/Control APTT Ratio,[12]; 4 hr,1.39
